Like-named read-outs stand apart in the source and are kept apart here.
Legend:
[1] = target: T1, HDAC6 (Homo sapiens, UniProt Q9UBN7); test: HDAC6 fluorescent-based enzymatic activity assay; assay type: biochemical
T1 construct: purchased BPS Bioscience
T1 sequence (Q9UBN7 1-1215): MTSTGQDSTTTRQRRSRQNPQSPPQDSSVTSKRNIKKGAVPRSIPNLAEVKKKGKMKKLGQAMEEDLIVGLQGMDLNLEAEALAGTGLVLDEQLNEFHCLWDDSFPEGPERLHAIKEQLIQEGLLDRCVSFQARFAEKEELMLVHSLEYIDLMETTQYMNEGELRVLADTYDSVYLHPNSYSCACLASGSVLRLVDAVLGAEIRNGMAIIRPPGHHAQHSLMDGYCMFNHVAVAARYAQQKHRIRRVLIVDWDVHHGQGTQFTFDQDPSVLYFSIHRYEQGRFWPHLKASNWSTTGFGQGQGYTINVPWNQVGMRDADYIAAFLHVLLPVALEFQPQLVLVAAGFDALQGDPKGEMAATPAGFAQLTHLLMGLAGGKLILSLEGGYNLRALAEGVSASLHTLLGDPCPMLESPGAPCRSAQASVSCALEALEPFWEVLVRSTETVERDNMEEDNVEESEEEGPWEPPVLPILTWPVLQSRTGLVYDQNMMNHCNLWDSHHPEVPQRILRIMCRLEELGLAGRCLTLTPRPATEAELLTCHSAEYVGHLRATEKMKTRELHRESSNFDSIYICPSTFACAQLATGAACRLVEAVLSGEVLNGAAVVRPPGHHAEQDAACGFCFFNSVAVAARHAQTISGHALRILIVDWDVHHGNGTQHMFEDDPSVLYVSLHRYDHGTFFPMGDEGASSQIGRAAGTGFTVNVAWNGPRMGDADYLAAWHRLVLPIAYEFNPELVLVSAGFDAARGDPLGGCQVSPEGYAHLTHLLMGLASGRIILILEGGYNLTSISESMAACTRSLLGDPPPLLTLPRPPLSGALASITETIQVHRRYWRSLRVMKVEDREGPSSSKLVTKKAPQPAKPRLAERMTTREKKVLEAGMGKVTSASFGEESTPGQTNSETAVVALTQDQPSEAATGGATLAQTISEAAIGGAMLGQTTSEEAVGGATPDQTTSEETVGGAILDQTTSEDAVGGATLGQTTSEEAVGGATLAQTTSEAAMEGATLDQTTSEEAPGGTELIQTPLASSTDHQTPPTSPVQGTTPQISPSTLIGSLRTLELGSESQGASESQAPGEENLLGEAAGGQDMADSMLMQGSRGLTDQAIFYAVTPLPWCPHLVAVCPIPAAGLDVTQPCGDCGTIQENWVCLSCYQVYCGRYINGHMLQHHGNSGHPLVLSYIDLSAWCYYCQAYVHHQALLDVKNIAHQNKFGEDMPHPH
Description: (§1) The purified recombinant Human HDACs and their corresponding substrates were purchased from BPS Bioscience (BPS Bioscience Inc., United States). The assays were carried out in a 384-well format using the BPS fluorescent–based HDAC activity assay according to the manufacturer’s protocol. In brief, […] of the HDAC reaction mixture was composed of HDAC assay buffer, […] BSA, serial diluted test compounds, appropriate concentration of HDACs, and […] fluorogenic substrate, the mixture was incubated at 37°C for 60 min, and then stopped by the addition of developer containing trypsin and TSA. After 20 min of incubation, the fluorescence was detected at the excitation wavelength of 360 nm and the emission wavelength of 460 nm using the EnVision Multilabel Reader (PerkinElmer Inc., United States). The analytical software, GraphPad Prism 5.0 (GraphPad Software, Inc., United States) was used to generate IC50 value via non-linear regression analysis.

[2] = system: Ac-histone H3, Ac-α-tubulin, p-ERK in HCT116 cells; test: Western blot analysis of HDAC and RAF pathway in HCT116 cells; assay type: cell-based, human
Description: (§2) FIGURE 3 Characterization of dual inhibition of HDAC and RAF pathway. Western blot analysis of 14b in HCT116 cells (A) and in HT-29 cells (B). Cells were treated with 0 μM, 0.12 μM, 0.37 μM, 1.1 μM, 3.3 μM, and 10 μM of drugs and incubated for 6 h. The cell lysis was subjected to Western blot analysis.
(§3) The cells were treated with various concentrations of 14b for 6 h. Then, the cells were lysed using 1×SDS sample lysis buffer (CST recommended) with protease and phosphatase inhibitors. Cell lysates were loaded and electrophoresed onto 8–12% SDS-PAGE gel, and then the separated proteins were transferred to a PVDF film. The film was blocked with 5% BSA (Sigma-Aldrich, St. Louis, MO, United States) in a TBS solution containing 0.5% Tween-20 for 4 h at room temperature, then incubated with the corresponding primary antibody (1:1000–1:200) overnight at 4°C. After washing with TBST, HRP-conjugated secondary antibody was incubated for 2 h. The protein signals were visualized by the ECL Western Blotting Detection Kit (Thermo Scientific, Grand Island, NY, United States), and detected with Amersham Imager 600 system (GE, Boston, MA, United States).

[3] = system: Ac-histone H3, Ac-α-tubulin, p-ERK in HT-29 cells; test: Western blot analysis of HDAC and RAF pathway in HT-29 cells; assay type: cell-based, human
Description: as §2, §3

[4] = target: T2, HDAC2 (Homo sapiens, UniProt Q92769); test: HDAC2 fluorescent-based enzymatic activity assay; assay type: biochemical; conditions: Table 3 isoform panel; read-out: Enzyme inhibition HDAC2 (Class I)
T2 construct: purchased BPS Bioscience
T2 sequence (Q92769 whole entry, canonical isoform): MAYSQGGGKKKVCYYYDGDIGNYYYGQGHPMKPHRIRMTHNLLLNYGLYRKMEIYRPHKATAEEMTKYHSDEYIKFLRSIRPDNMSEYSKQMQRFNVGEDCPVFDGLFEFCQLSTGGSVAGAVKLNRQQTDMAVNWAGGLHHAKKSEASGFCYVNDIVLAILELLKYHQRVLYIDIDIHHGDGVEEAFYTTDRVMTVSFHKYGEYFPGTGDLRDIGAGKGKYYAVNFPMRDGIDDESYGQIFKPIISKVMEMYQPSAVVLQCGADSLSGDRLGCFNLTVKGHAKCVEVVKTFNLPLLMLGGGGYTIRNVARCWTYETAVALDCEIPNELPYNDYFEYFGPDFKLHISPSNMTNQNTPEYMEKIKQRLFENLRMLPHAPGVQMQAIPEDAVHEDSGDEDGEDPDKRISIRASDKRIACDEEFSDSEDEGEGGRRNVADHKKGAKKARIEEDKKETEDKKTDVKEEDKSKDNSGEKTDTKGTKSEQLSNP
Description: as §1

With `CC(C)(C)c1nc(-c2cccc(NS(=O)(=O)c3c(F)cccc3F)c2F)c(-c2ccnc(NCCCCCCC(=O)NO)n2)s1` [14b, 7-{[4-(2-(Tert-Butyl)-4-(3-((2,6-Difluorophenyl)Sulfonamido)-2-Fluorophenyl)Thiazol-5-yl)Pyrimidin-2-yl]Amino}-N-Hydroxyheptanamide] the “HDAC6 inhibition fold more potent than class I isoforms” value ([1]; HDAC6 vs HDAC1, HDAC2, HDAC3, HDAC8) was greater than 10 fold, the “HDAC6 inhibition fold more potent than class IIA HDACs” value ([1]; HDAC6 vs HDAC4, HDAC5, HDAC7) was greater than 800 fold and the IC50 ([1]; Table 1, read-out: Enzymatic IC50 HDAC6) was 0.0492 µM. The IC50 ([1]; Table 3 isoform panel, read-out: Enzyme inhibition HDAC6 (Class IIB)) was 0.049 µM, the “expression of BRAF” value ([2]; HCT116 cells) was “did not affect the expression of BRAF itself” and the “phosphorylation of ERK (p-ERK)” value ([2]; HCT116 cells (wild-type BRAF, K-RAS G13D), 0.12-10 μM, 6 h) was “significantly inhibited phosphorylation of ERK”. The “acetylated histone H3 (Ac-histone H3)” value ([2]; HCT116 cells, 0.12-10 μM, 6 h) was “upregulated”, the “acetylated α-tubulin (Ac-α-tubulin)” value ([2]; HCT116 cells, 0.12-10 μM, 6 h) was “upregulated” and the “expression of BRAF” value [3] was “did not affect the expression of BRAF itself”. For the same compound, the “acetylated histone H3 (Ac-histone H3)” value ([3]; 0.12-10 μM, 6 h) was “upregulated”, the “acetylated α-tubulin (Ac-α-tubulin)” value ([3]; 0.12-10 μM, 6 h) was “upregulated” and the “phosphorylation of ERK (p-ERK)” value ([3]; 0.12-10 μM, 6 h) was “significantly inhibited at the lowest concentration of 0.12 μM”. For the same compound, the IC50 [4] was 0.747 µM.
